One series concerns the target Bgp (Borrelia burgdorferi, UniProt Q9F952). Description: UV spectrophotometric MTN activity and kinetics assay, Bgp. The series is classed as biochemical. As to conditions: pH 7, mean ± SEM; for Km: substrate kinetics.
The target of the next series is MtnN (Borrelia burgdorferi, UniProt O50860). Description: UV spectrophotometric MTN activity and kinetics assay, MtnN. The series is classed as biochemical. As to conditions: pH 7, mean ± SEM; for Km: substrate kinetics.
In another series the target is Pfs (Borrelia burgdorferi, UniProt O50162). Description: UV spectrophotometric MTN activity and kinetics assay, Pfs. The series is classed as biochemical. As to conditions: pH 5, mean ± SEM; for Km: substrate kinetics.
The next series deals with Trichomonas vaginalis. Conditions: cultured parasites; cited from earlier work.
Series [1] relates to B. burgdorferi strain N40. Description: BacTiter-Glo bioluminescent cell viability assay. The series is classed as cell-based, Borrelia burgdorferi. Conditions: Borreliella burgdorferi, N40, 24 h, read-out: IC50 (cell viability).
Another series has as its system Plasmodium falciparum. As to conditions: purine-less cell death in malarial cultures; cited from earlier work.
In series [2] the test system is C[C@H]1O[C@@H](n2cnc3c(N)ncnc32)[C@H](O)[C@@H]1O. Description: UV spectrophotometric MTN activity and kinetics assay, Bgp. Conditions: other: Bgp, substrate kinetics, pH 7, mean ± SEM. The series is classed as biochemical, Borrelia burgdorferi.
Substrate in series [3]: C[C@H]1O[C@@H](n2cnc3c(N)ncnc32)[C@H](O)[C@@H]1O
Description: UV spectrophotometric MTN activity and kinetics assay, MtnN. The series is classed as biochemical, Borrelia burgdorferi. Conditions: other: MtnN, substrate kinetics, pH 7, mean ± SEM.

Substrate in series [4]: C[C@H]1O[C@@H](n2cnc3c(N)ncnc32)[C@H](O)[C@@H]1O
Description: UV spectrophotometric MTN activity and kinetics assay, Pfs. The series is classed as biochemical, Borrelia burgdorferi. As to conditions: other: Pfs, substrate kinetics, pH 5, mean ± SEM.

Values joined by “and” are separate entries in the source; they are usually repeats but may differ in a detail not shown here. Equal values may be shown once.

A word on the kcat: it is the number of substrate molecules converted per active site and unit of time at saturation. What is called Km is the substrate concentration at which the rate is half of its maximum. With 5’-methylthioadenosine [MTA], the results for the kcat at Bgp, at MtnN and at Pfs were 111 ± 20 min⁻¹, 93 ± 5 min⁻¹ and 107 ± 3 min⁻¹, respectively. Also, the Km was 490 ± 10 nM at Bgp; 9.1 µM and 9.09 µM on MtnN; 610 ± 160 nM at Pfs.
A word on the IC50: it is the midpoint of a concentration-inhibition curve. Consider `Nc1nc(F)nc2c1ncn2[C@H]1C[C@H](O)[C@@H](CO)O1` [2-fluoro-2’-deoxyadenosine], for which the half-inhibitory concentration (IC50) in the series on Trichomonas vaginalis was 106 nM.
For the molecule `CCCCSCC1CN(Cc2c[nH]c3c(N)ncnc23)CC1O` (centres unmarked) [BuT-DADMe-ImmA, 1-[(9-deazaadenin-9-yl)methyl]-3-hydroxy-4-(butylthiomethyl)pyrrolidine], the IC50 in series [1] was 0.38 µg/mL and ~100 nM.
For the molecule `Nc1ncnc2c(C3N[C@H](CO)[C@@H](O)[C@H]3O)c[nH]c12` (some centres unmarked) [Immucillin-A (ImmA), Immucillin-A], in the series on Plasmodium falciparum, the half-inhibitory concentration (IC50) was 35 nM.
For the molecule `CSCC1CN(Cc2c[nH]c3c(N)ncnc23)CC1O` (centres unmarked) [MT-DADMe-ImmA, 1-[(9-deazaadenin-9-yl)methyl]-3-hydroxy-4-(methylthiomethyl) pyrrolidine], in series [1], the IC50 was 0.31 µg/mL and ~100 nM.
In the case of `Nc1ncnc2c1ncn2[C@@H]1O[C@H](CSCC[C@H](N)C(=O)O)[C@@H](O)[C@H]1O` [SAH, S-adenosylhomocysteine], the kcat worked out at 105 ± 12 min⁻¹ at Bgp, 33 ± 1 min⁻¹ at MtnN and 94 ± 5 min⁻¹ on Pfs. For the same molecule, the Michaelis constant (Km) at Bgp worked out at 1960 ± 670 nM; on MtnN, 2.04 ± 0.44 µM; at Pfs, 750 ± 160 nM.
For `CC1(C)S[C@@H]2[C@H](NC(=O)[C@H](N)c3ccccc3)C(=O)N2[C@H]1C(=O)O` [ampicillin], the IC50 in series [1] is 1.07 µg/mL and 3.01 µM.
Usually kcat/Km stands for the second-order rate constant that governs catalysis at low substrate concentration. For Bgp (Borreliella burgdorferi), in series [2], the Km was found to be 1.79 ± 0.52 µM, the kcat was 1.53 ± 0.467 s⁻¹ and the kcat/Km stood at 850000 ± 267000 M⁻¹ s⁻¹.

B1: MtnN (Borreliella burgdorferi B31) (protein)
chain: NESKINTPNENSQSNILIISATKAEIEEINKIIQNKKYISIEEHRRKKKIAIGKLMDHNIITIATGVGKINTALWTSYIISKYKISHIINAGVASGIYSDKNKFIKIGDVVISTETTSYDFDLHRFGYEIGHVPEHPKKFKANTALIRKTSKIKINNITSYMGLIITGDQFIDHQTFQEIPEEFENAIAIDMESAAMAQVAYGFKIPFIIIRGISDIVNNENNYDDYKKFLKKASSSSAKIVENLIKLM
B1: in [3], the Km was 10.5 µM and 10.46 ± 0.75 µM; the catalytic constant (kcat) was 0.733 ± 0.0167 s⁻¹; the kcat/Km was 66700 ± 5000 M⁻¹ s⁻¹.

B2: Pfs (Borreliella burgdorferi B31) (protein)
chain: MILIISAMQEESEEINKILDNKEEIVLNDYLENKKIYKGKILGKDVISLTTGIGKVNAATWSSQIISKYKITHIINSGSSGGIKENSNLKILDIIVSSETAYYDFDLTKFGHKIGQVPNLPQKFKADEELLKKVANIVDNKLLNIDIHIGLILTGDQFVDNEKNLETIKKNFKDALAVDMEGAAIAQVAHIFKIPFIIIRSISDLPNNKDNHIDFNKFLKTSSINSSKMTKELIRLI
Consider B2, for which, in series [4], the Km is 1.37 ± 0.37 µM, the kcat came out at 2.7 ± 0.15 s⁻¹ and the kcat/Km was determined as 1.97e+06 ± 400000 M⁻¹ s⁻¹.

These data come from publication PMC6881558 (Biochimica et biophysica acta. General subjects, 2019).
